The series can be described thus: Metabolic stability in human liver microsomes. It counts as in vitro ADME. Particulars: for differences in half-life and intrinsic clearance compared to R-MBDB HCl salt (reference compound) / differences in half-life and intrinsic clearance compared to rac-MBDB HCl salt (reference compound) / differences in half-life and intrinsic clearance compared to S-MBDB HCl salt (reference compound): based on Table Ex7; for half-life at 0.25 μM / microsomal CLint at 0.25 μM: pH 7.4, NADPH; for half-life at 0.25 μM / microsomal CLint at 0.25 μM / CLint / t1/2: 37° C.; for CLint / t1/2: NADPH. Here is the method:
Microsomal Assay: Human liver microsomes (20 mg/mL) were obtained. β-nicotinamide adenine dinucleotide phosphate, reduced form (NADPH), magnesium chloride (MgCl2), and dimethyl sulfoxide (DMSO) were purchased from Sigma-Aldrich. Determination of Metabolic Stability: 7.5 mM stock solutions of test compounds of the above structural formula (e.g., of an embodiment or aspect of embodiment thereof described herein), or pharmaceutically acceptable salt thereof, are prepared in DMSO. […] The diluted microsomes were added to wells of a 96-well deep-well polypropylene plate in triplicate. […] Reactions were initiated by addition of pre-warmed NADPH solution. The final reaction volume is 0.5 mL and contains 4.0 mg/mL human liver microsomes, 0.25 μM test compound, and 2 mM NADPH in 0.1 M potassium phosphate buffer, pH 7.4, and 3 mM MgCl2. The reaction mixtures were incubated at 37° C., and 50 pL aliquots were removed at 0, 5, 10, 20, and 30 minutes and added to shallow-well 96-well plates which contain 50 pL of ice-cold ACN (acetonitrile) with internal standard to stop the reactions. The plates were stored at 4° C. for 20 minutes after which 100 pL of water was added to the wells of the plate before centrifugation to pellet precipitated proteins. Supernatants were transferred to another 96-well plate and analyzed for amounts of parent remaining by LC-MS/MS using an Applied Bio-systems API 4000 mass spectrometer. The same procedure was followed for the non-enriched counterpart of the compound and the positive control, 7-ethoxycoumarin (1 μM). Testing was done in triplicate.
Data analysis: The in vitro T1/2s for test compounds were calculated from the slopes of the linear regression of % parent remaining (In) vs incubation time relationship.
k=−[slope of linear regression of % parent remaining (In) vs incubation time] The apparent intrinsic clearance was calculated using the following equation: […]
(Liver microsomes are vesicles of endoplasmic reticulum, rich in cytochrome P450 enzymes.)

As to `Cl.[2H]C([2H])([2H])N[C@H](CC)Cc1ccc2c(c1)OC([2H])([2H])O2` [Compound 5, (2R)-1-(2,2-Dideuterio-1,3-benzodioxol-5-yl)-N-(trideuteriomethyl)butan-2-amine hydrochloride], the “differences in half-life and intrinsic clearance compared to R-MBDB HCl salt (reference compound)” value is on record as “significant differences”; the half-life at 0.25 μM amounted to 0.405 h; the microsomal CLint at 0.25 μM was 57.1 µL/min/mg.

Turning to `Cl.[2H]C1([2H])Oc2ccc(CC(CC)NC)cc2O1` (racemic) [Compound 8, 1-(2,2-Dideuterio-1,3-benzodioxol-5-yl)-N-methyl-butan-2-amine hydrochloride], the “differences in half-life and intrinsic clearance compared to rac-MBDB HCl salt (reference compound)” value is reported as “significant differences”; the half-life at 0.25 μM is 1.34 h; the intrinsic metabolic clearance (microsomal CLint) at 0.25 μM is 17.2 µL/min/mg.

Turning to `Cl.[2H]C([2H])([2H])NC(CC)Cc1ccc2c(c1)OCO2` (racemic) [Compound 2, 1-(1,3-Benzodioxol-5-yl)-N-(trideuteriomethyl)butan-2-amine hydrochloride], the “differences in half-life and intrinsic clearance compared to rac-MBDB HCl salt (reference compound)” value is “demonstrates differences”; the half-life at 0.25 μM worked out at 1.87 h; the microsomal CLint at 0.25 μM was determined as 12.4 µL/min/mg.

As for `CC[C@H](Cc1ccc2c(c1)OCO2)NC.Cl` [R-MBDB HCl salt], the CLint stood at 11.7 μL/min/mg protein and the t1/2 worked out at 1.98 h.

As for `Cl.[2H]C1([2H])Oc2ccc(C[C@H](CC)NC)cc2O1` [Compound 9, (2S)-1-(2,2-Dideuterio-1,3-benzodioxol-5-yl)-N-methyl-butan-2-amine hydrochloride], the “differences in half-life and intrinsic clearance compared to S-MBDB HCl salt (reference compound)” value is “significant differences”; the half-life at 0.25 μM worked out at 0.867 h; the microsomal CLint at 0.25 μM was 26.7 µL/min/mg.

`CC[C@@H](Cc1ccc2c(c1)OCO2)NC.Cl` [S-MBDB HCl salt]: the CLint was determined as 8.06 μL/min/mg protein and the t1/2 amounted to 2.87 h.

Turning to `Cl.[2H]C([2H])([2H])N[C@@H](CC)Cc1ccc2c(c1)OCO2` [Compound 3, (2S)-1-(1,3-Benzodioxol-5-yl)-N-(trideuteriomethyl)butan-2-amine hydrochloride], the “differences in half-life and intrinsic clearance compared to S-MBDB HCl salt (reference compound)” value is given as “demonstrates differences”; the half-life at 0.25 μM worked out at 2.88 h; the microsomal CLint at 0.25 μM came out at 8.04 µL/min/mg.

Consider `Cl.[2H]C([2H])([2H])N[C@@H](CC)Cc1ccc2c(c1)OC([2H])([2H])O2` [Compound 6, (2S)-1-(2,2-Dideuterio-1,3-benzodioxol-5-yl)-N-(trideuteriomethyl)butan-2-amine hydrochloride], for which the “differences in half-life and intrinsic clearance compared to S-MBDB HCl salt (reference compound)” value is recorded as “significant differences”; the half-life at 0.25 μM came to 0.91 h; the intrinsic clearance (microsomal CLint) at 0.25 μM was determined as 25.4 µL/min/mg.

With `Cl.[2H]C([2H])([2H])N[C@H](CC)Cc1ccc2c(c1)OCO2` [Compound 1, (2R)-1-(1,3-Benzodioxol-5-yl)-N-(trideuteriomethyl)butan-2-amine hydrochloride], the “differences in half-life and intrinsic clearance compared to R-MBDB HCl salt (reference compound)” value is on record as “significant differences”; the half-life at 0.25 μM worked out at 1.61 h; the intrinsic clearance (microsomal CLint) at 0.25 μM amounted to 14.3 µL/min/mg.

For `Cl.[2H]C1([2H])Oc2ccc(C[C@@H](CC)NC)cc2O1` [Compound 7, (2R)-1-(2,2-Dideuterio-1,3-benzodioxol-5-yl)-N-methyl-butan-2-amine hydrochloride], the “differences in half-life and intrinsic clearance compared to R-MBDB HCl salt (reference compound)” value is “significant differences”; the half-life at 0.25 μM turned out to be 0.628 h; the intrinsic clearance (microsomal CLint) at 0.25 μM was 36.7 µL/min/mg.

`CCC(Cc1ccc2c(c1)OCO2)NC.Cl` (racemic) [rac-MBDB HCl salt] registered a CLint of 11.9 μL/min/mg protein and a t1/2 of 1.93 h.

On to `COc1ccc2c(c1)[C@]13CCCC[C@@H]1[C@H](C2)N(C)CC3` [dextromethorphan], for which the CLint is given as 53.4 μL/min/mg protein.

On to `Cl.[2H]C([2H])([2H])NC(CC)Cc1ccc2c(c1)OC([2H])([2H])O2` (racemic) [Compound 4, 1-(2,2-Dideuterio-1,3-benzodioxol-5-yl)-N-(trideuteriomethyl)butan-2-amine hydrochloride], for which the “differences in half-life and intrinsic clearance compared to rac-MBDB HCl salt (reference compound)” value is listed as “significant differences”; the half-life at 0.25 μM was found to be 0.7 h; the intrinsic metabolic clearance (microsomal CLint) at 0.25 μM stood at 33 µL/min/mg.

What is called half-life is the time in which the quantity being followed falls by half. Higher therefore signals slow decline. One may read the microsomal CLint as the rate of metabolic loss divided by the concentration. High values mean faster metabolism, low ones greater metabolic stability.

The values are drawn from patent publication US20250034105A1, “IS[…] N-METHYL-1,3-BENZODIOXOLYLBUTANAMINE (MBDB) AND STEREOISOMERS THEREOF” (Terran Biosciences Inc., priority 2021, published 2025).
